Reference: US20100028259A1, “USE OF ORGANIC CATION TRANSPORTERS FOR CANCER DIAGNOSIS AND THERAPY” (The Regents of the University of California, priority 2006, published 2010)
Like-named read-outs stand apart in the source and are kept apart here.

Columns and labels:
MDCK-MOCK cells = assay: Platinum-DNA adduct formation in MDCK-MOCK cells; assay type: cell-based, canine
Method: (§1) After incubation at 37° C. and 5% CO2 for 2 hours, the cells were washed with ice-cold PBS three times and harvested. The genomic DNA was isolated from the cells and the platinum content associated with DNA was determined by ICP-MS and normalized for DNA content. Data are expressed as mean±SD from a typical experiment performed in triplicate. Two independent experiments were conducted and similar results were obtained.
(§2) After incubation, the cells were washed with ice-cold PBS three times and harvested. Genomic DNA was isolated from the harvested cells and the DNA-associated platinum content was determined by ICP-MS and normalized for the DNA content. Data are expressed as mean±SD of three measurements.
(§3) The platinum content associated with genomic DNA was determined as described in Samimi et al., Clin. Cancer Res., 10:4661-4669 (2004) with some modifications. Briefly, the cells were grown in 100 mm×20 mm dishes in the culture medium without any antibiotics to over 90% confluence. For HEK 293 cells, poly-D-lysine coated dishes were used. Then, the cells were incubated in the culture medium containing the specified concentrations of the platinum-based compounds at 37° C. in 5% CO2 for 2 hours (or 25 min as specified). In some experiments, phosphate buffer (PB: 1.06 mM KH2PO4, 2.97 mM Na2HPO4, pH 7.4) containing 155 mM NaCl (PB—Cl buffer) or 103 mM Na2SO4 (PB—SO4 buffer) was used instead of the culture medium as specified. For the OCT inhibitor study, the incubation medium (buffer) also contained disopyramide or cimetidine). If PB—Cl or PB—SO4 buffer was used, the cells were washed with the same buffer once before drug incubation. After incubation, the cells were washed with ice-cold PBS, scraped, and pelleted. Genomic DNA was isolated from the cell pellets using the Wizard® Genomic DNA Purification Kit (Promega, Madison, Wis.) following the manufacturer's instructions. Briefly, the cells were lysed with Nuclei Lysis Solution. After RNA digestion and protein precipitation, the lysates were centrifuged and the resulting supernatant was aliquoted. The genomic DNA prepared from two different aliquots of the supernatant was used for platinum and DNA content determination, respectively. For the determination of platinum, the DNA samples were treated with 70% nitric acid at 65° C. and diluted in the same way as described above. The platinum content was analyzed using ICP-MS and the DNA content was measured by absorption spectroscopy.

HEK-hOCT2 cells [1] = assay: MTT drug sensitivity assay in HEK-hOCT2 cells; assay type: cell-based, human
Method: (§4) Cytotoxicity of the platinum-based compounds was measured by MTT (thiazolyl blue tetrazolium bromide) assay. Cells were seeded in 100 μl of the culture medium without any antibiotics in 96-well plates at a predetermined cell density. For HEK 293 cells, poly-D-lysine coated plates were used. […] For the OCT inhibitor studies, the inhibitors (i.e., disopyramide or cimetidine) were added to the medium at a specified concentration immediately before the addition of the platinum-based compounds. After incubation for a specified time period, the drug-containing medium was replaced with fresh, drug-free medium and the incubation was continued for a total of 72 hours (start from the addition of platinum-based compounds). Then, the MTT assay was performed similarly as described in Alley et al., Cancer Res., 48:589-601 (1988). […] The maximal cell growth was the cell growth in the medium without any platinum-based compounds; C is the concentration of the platinum-based compound, and γ is the slope factor.
Briefly, the cells were seeded in 96-well plates at a density of 5,000 cells/well for the transfected MDCK cells or 12,000 cells/well for the transfected HEK 293 cells. The platinum-based drugs were added on the following day. After the specified time periods of drug exposure, the drug-containing medium was replaced with fresh, drug-free medium, and the incubation was continued for a total of 72 hours (start from the time when the drug was added). After incubation, the cell growth was determined by an MTT assay. Data are expressed as mean±SD from 3 to 6 independent experiments with each performed in quadruplicate. The resistance factor (RF) was defined as the ratio of the mean IC50 value in the MOCK cells to that in the OCT-transfected cells.

HEK-hOCT2 cells [2] = assay: Platinum-DNA adduct formation in HEK-hOCT2 cells; assay type: cell-based, human; conditions: 2-hr exposure
Method: as §1, §3

HCT116 = assay: MTT drug sensitivity, colon cancer cell line HCT116; assay type: cell-based, human
Method: as §4
(§5) The cell seeding density was 6,000-, 8,000-, 6,000-, 15,000-12,000- and 4,000 cells/well for HCT116, HT29, RKO, SW620, LS180, and DLD cells, respectively. When cimetidine (1.5 mM) was used, it was added to the wells immediately before the addition of the platinum-based drugs. The resistance factor (RF) was defined as the ratio of the mean IC50 value in the presence to that in the absence of cimetidine. Data are expressed as mean±SD from six measurements, and each measurement was performed in quadruplicate.

HT29 = assay: MTT drug sensitivity, colon cancer cell line HT29; assay type: cell-based, human
Method: as §4, §5

MDCK-hOCT1 cells = assay: Platinum-DNA adduct formation in MDCK-hOCT1 cells; assay type: cell-based, canine
Method: as §1, §2, §3

[3] = 2-hr exposure, oxaliplatin 10 μM, culture medium
[4] = 2-hr exposure, disopyramide 150 μM

O=C1[O][Pt]2([NH][C@@H]3CCCC[C@H]3[NH]2)[O]C1=O [oxaliplatin]
DNA-associated platinum level in MDCK-MOCK (MDCK-MOCK cells; 20 μM, PB—Cl, 25 min): 0.0034±0.00087 pmol/μg DNA | rb in MDCK-MOCK (MDCK-MOCK cells; 20 μM, PB—Cl, 25 min): 1.12±0.29×10^−6 | Pt-DNA adduct level in MDCK-MOCK (MDCK-MOCK cells; 20 μM, PB—SO4, 25 min): 0.0032±0.00042 pmol/μg DNA | rb in MDCK-MOCK (MDCK-MOCK cells; 20 μM, PB—SO4, 25 min): 1.05±0.14×10^−6 | platinum-DNA adduct level in MDCK-MOCK (MDCK-MOCK cells; [3]): 0.0110±0.0010 pmol/μg DNA | effect of disopyramide on platinum-DNA adduct formation in MDCK-MOCK (MDCK-MOCK cells; disopyramide 150 μM): no effect | IC50 (HEK-hOCT2 cells [1]; co-incubation with cimetidine 1.5 mM, read-out: IC50 in HEK-hOCT2, cimetidine-treated): 2.81 ± 1.63 µM | IC50 (HEK-hOCT2 cells [1]; drug exposure 7 hour, read-out: IC50 HEK-hOCT2): 0.039 ± 0.025 µM | IC50 (HEK-hOCT2 cells [1]; drug exposure 24 hour, read-out: IC50 HEK-hOCT2): 0.02 ± 0.001 µM | IC50 (HEK-hOCT2 cells [1]; drug exposure 72 hour, read-out: IC50 HEK-hOCT2): 0.019 ± 0.004 µM | platinum-DNA adduct level in HEK-hOCT2, cimetidine (HEK-hOCT2 cells [2]; cimetidine 1.5 mM): 0.00216±0.00031 pmol/μg DNA | rb in HEK-hOCT2, cimetidine (HEK-hOCT2 cells [2]; cimetidine 1.5 mM): 7.13±1.02×10^−7 | platinum-DNA adduct level in HEK-hOCT2 (HEK-hOCT2 cells [2]; oxaliplatin 0.6 μM): 0.0284±0.0020 pmol/μg DNA | rb in HEK-hOCT2 (HEK-hOCT2 cells [2]; oxaliplatin 0.6 μM): 9.37±0.66×10^−6 | IC50 (HCT116; HCT116, absence of cimetidine, read-out: IC50 Control): 2.37 ± 1.44 µM | IC50 (HCT116; HCT116, cimetidine 1.5 mM, read-out: IC50 Cimetidine-treated): 18.8 ± 6.19 µM | IC50 (HT29; HT29, absence of cimetidine, read-out: IC50 Control): 4.56 ± 1.4 µM | IC50 (HT29; HT29, cimetidine 1.5 mM, read-out: IC50 Cimetidine-treated): 52.1 ± 18.5 µM | rb in MDCK-hOCT1 (MDCK-hOCT1 cells; 20 μM, PB—Cl, 25 min): 3.08±0.41×10^−6 | rb in MDCK-hOCT1 (MDCK-hOCT1 cells; 20 μM, PB—SO4, 25 min): 1.31±0.29×10^−6 | Pt-DNA adduct level in MDCK-hOCT1 (MDCK-hOCT1 cells; 20 μM, chloride free buffer PB—SO4, 25 min): 0.00398±0.00089 pmol/μg DNA | DNA-associated platinum level in MDCK-hOCT1 (MDCK-hOCT1 cells; 20 μM, chloride-containing buffer PB—Cl, 25 min): 0.00933±0.00124 pmol/μg DNA | platinum-DNA adduct level in MDCK-hOCT1, disopyramide-treated (MDCK-hOCT1 cells; [4]): 0.0217±0.0019 pmol/μg DNA | rb in MDCK-hOCT1, disopyramide-treated (MDCK-hOCT1 cells; [4]): 7.16±0.63×10^−6 | platinum-DNA adduct level in MDCK-hOCT1 (MDCK-hOCT1 cells; [3]): 0.0457±0.0011 pmol/μg DNA
